From patent US20250179073A1, “TRICYCLIC HETEROCYCLE COMPOUNDS AS IAP ANTAGONISTS” (Ascentage Pharma (Suzhou) Co., Ltd., priority 2022, published 2025)

Legend:
MDA-MB-231 cells = assay: Cell proliferation assay (CellTiter-Glo), MDA-MB-231; format: cell-based; conditions: Homo sapiens, MDA-MB-231, 72 h, 72 h treatment, Celltiter-Glo luminescence
Method in brief: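 MDA-MB-231 (RPMI-1640/10% FBS) and EVSA-T (MEM/10% FBS) cells, 10000 cells/well, exposed 72 h to compound at […]. Viability read by CellTiter-Glo luminescence after 15 min at room temperature. IC50 from control-normalised curve fitting.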

EVSA-T cells = assay: Cell proliferation assay (CellTiter-Glo), EVSA-T; format: cell-based; conditions: Homo sapiens, EVSA-T, 72 h, 72 h treatment, Celltiter-Glo luminescence
Description: Example 238: Cell Proliferation Assay
MDA-MB-231 and EVSA-T cells (10000 cells/well) were plated onto 96-well plates (Corning, Cat #3917) in 95 μL of medium (RPMI-1640 containing 10% FBS and MEM containing 10% FBS, respectively). Compounds with various concentrations ([…]) were added to the wells. After treatment for 72 h, 30 μL of Celltiter-Glo reagent (Promega, Cat #G7573) was added and incubated at room temperature for 15 min, then the luminescent signal was determined using a microplate reader (Biotek, SynergyH1). The inhibitor dose-response curves were analyzed using normalized IC50 regression curve fitting with control based normalization.

IC50 (MDA-MB-231 cells) | Structure (SMILES) | IC50 (EVSA-T cells)
28 nM | C[C@@H]1CN(CC(=O)N2CC(C)(C)c3c2cc(Cc2ccc(F)cc2)c2ncnn32)[C@@H](CN2CCN(CC(F)(F)F)C[C@H]2C)CN1 [Compound 63, 1-(4-(4-fluorobenzyl)-8,8-dimethyl-7,8-dihydro-6H-pyrrolo[2,3-e][1,2,4]triazolo[1,5-a]pyridin-6-yl)-2-((2R,5R)-5-methyl-2-(((R)-2-methyl-4-(2,2,2-trifluoroethyl)piperazin-1-yl)methyl)piperazin-1-yl)ethan-1-one] | 3 nM
70 nM | C[C@@H]1CN(CC(=O)N2CC(C)(C)c3c2cc(Cc2ccc(F)cc2)c2ncnn32)[C@@H](CN2CCC(C)(O)C[C@H]2C)CN1 (stereo partly drawn) [Compound 77, 1-(4-(4-fluorobenzyl)-8,8-dimethyl-7,8-dihydro-6H-pyrrolo[2,3-e][1,2,4]triazolo[1,5-a]pyridin-6-yl)-2-((2R,5R)-2-(((2R)-4-hydroxy-2,4-dimethylpiperidin-1-yl)methyl)-5-methylpiperazin-1-yl)ethan-1-one] | 5 nM
26 nM | C[C@@H]1CN(CC(=O)N2CC(C)(C)c3c2cc(Cc2ccc(F)cc2)c2ncnn32)[C@@H](CN2Cc3ccccc3C2=O)CN1 [Compound 94, 2-(((2R,5R)-1-(2-(4-(4-fluorobenzyl)-8,8-dimethyl-7,8-dihydro-6H-pyrrolo[2,3-e][1,2,4]triazolo[1,5-a]pyridin-6-yl)-2-oxoethyl)-5-methylpiperazin-2-yl)methyl)isoindolin-1-one] | 4 nM
12 nM | C[C@@H]1CN(CC(=O)N2CC(C)(C)c3c2cc(Cc2ccc(F)cc2)c2ncnn32)[C@@H](CN2Cc3ncccc3C2=O)CN1 [Compound 95, 6-(((2R,5R)-1-(2-(4-(4-fluorobenzyl)-8,8-dimethyl-7,8-dihydro-6H-pyrrolo[2,3-e][1,2,4]triazolo[1,5-a]pyridin-6-yl)-2-oxoethyl)-5-methylpiperazin-2-yl)methyl)-6,7-dihydro-5H-pyrrolo[3,4-b]pyridin-5-one] | 0.4 nM
52 nM | C[C@@H]1CN(CC(=O)N2CC(C)(C)c3c2cc(Cc2ccc(F)cc2)c2ncnn32)[C@@H](CN2Cc3cnccc3C2=O)CN1 [Compound 96, 2-(((2R,5R)-1-(2-(4-(4-fluorobenzyl)-8,8-dimethyl-7,8-dihydro-6H-pyrrolo[2,3-e][1,2,4]triazolo[1,5-a]pyridin-6-yl)-2-oxoethyl)-5-methylpiperazin-2-yl)methyl)-2,3-dihydro-1H-pyrrolo[3,4-c]pyridin-1-one] | 5 nM
47 nM | C[C@@H]1CN(CC(=O)N2CC(C)(C)c3c2cc(Cc2ccc(F)cc2)c2ncnn32)[C@@H](CN2Cc3ccncc3C2=O)CN1 [Compound 97, 2-(((2R,5R)-1-(2-(4-(4-fluorobenzyl)-8,8-dimethyl-7,8-dihydro-6H-pyrrolo[2,3-e][1,2,4]triazolo[1,5-a]pyridin-6-yl)-2-oxoethyl)-5-methylpiperazin-2-yl)methyl)-1,2-dihydro-3H-pyrrolo[3,4-c]pyridin-3-one] | 3 nM
72 nM | C[C@@H]1CN(CC(=O)N2CC(C)(C)c3c2cc(Cc2ccc(F)cc2)c2ncnn32)[C@@H](CN2Cc3cccnc3C2=O)CN1 [Compound 98, 6-(((2R,5R)-1-(2-(4-(4-fluorobenzyl)-8,8-dimethyl-7,8-dihydro-6H-pyrrolo[2,3-e][1,2,4]triazolo[1,5-a]pyridin-6-yl)-2-oxoethyl)-5-methylpiperazin-2-yl)methyl)-5,6-dihydro-7H-pyrrolo[3,4-b]pyridin-7-one] | 8 nM

Further lines, the molecule ahead of its results:

Structure (SMILES) | IC50 (MDA-MB-231 cells) | IC50 (EVSA-T cells)
Cc1nc2c(Cc3ccc(F)cc3)cc3c(n2n1)C(C)(C)CN3C(=O)CN1C[C@@H](C)NC[C@@H]1CN1CCOC[C@H]1C [Compound 36, 1-(4-(4-fluorobenzyl)-2,8,8-trimethyl-7,8-dihydro-6H-pyrrolo[2,3-e][1,2,4]triazolo[1,5-a]pyridin-6-yl)-2-((2R,5R)-5-methyl-2-(((R)-3-methylmorpholino)methyl)piperazin-1-yl)ethan-1-one] | 36 nM | 2 nM
C[C@@H]1CN(CC(=O)N2CC(C)(C)c3c2cc(Cc2ccc(F)cc2)c2nc(CO)nn32)[C@@H](CN2CCOC[C@H]2C)CN1 [Compound 37, 1-(4-(4-fluorobenzyl)-2-(hydroxymethyl)-8,8-dimethyl-7,8-dihydro-6H-pyrrolo[2,3-e][1,2,4]triazolo[1,5-a]pyridin-6-yl)-2-((2R,5R)-5-methyl-2-(((R)-3-methylmorpholino)methyl)piperazin-1-yl)ethan-1-one] | 71 nM | 4 nM
C[C@@H]1CN(CC(=O)N2CC(C)(C)c3c2cc(Cc2ccccc2F)c2ncnn32)[C@@H](CN2CCOC[C@H]2C)CN1 [Compound 38, 1-(4-(2-fluorobenzyl)-8,8-dimethyl-7,8-dihydro-6H-pyrrolo[2,3-e][1,2,4]triazolo[1,5-a]pyridin-6-yl)-2-((2R,5R)-5-methyl-2-(((R)-3-methylmorpholino)methyl)piperazin-1-yl)ethan-1-one] | 150 nM | 6 nM
C[C@@H]1CN(CC(=O)N2CC(C)(C)c3c2cc(Cc2cccc(F)c2)c2ncnn32)[C@@H](CN2CCOC[C@H]2C)CN1 [Compound 39, 1-(4-(3-fluorobenzyl)-8,8-dimethyl-7,8-dihydro-6H-pyrrolo[2,3-e][1,2,4]triazolo[1,5-a]pyridin-6-yl)-2-((2R,5R)-5-methyl-2-(((R)-3-methylmorpholino)methyl)piperazin-1-yl)ethan-1-one] | 150 nM | 34 nM
C[C@@H]1CN(CC(=O)N2CC(C)(C)c3c2cc(Cc2ccc(F)cc2F)c2ncnn32)[C@@H](CN2CCOC[C@H]2C)CN1 [Compound 40, 1-(4-(2,4-difluorobenzyl)-8,8-dimethyl-7,8-dihydro-6H-pyrrolo[2,3-e][1,2,4]triazolo[1,5-a]pyridin-6-yl)-2-((2R,5R)-5-methyl-2-(((R)-3-methylmorpholino)methyl)piperazin-1-yl)ethan-1-one] | 59 nM | 3 nM
COc1cc(F)ccc1Cc1cc2c(n3ncnc13)C(C)(C)CN2C(=O)CN1C[C@@H](C)NC[C@@H]1CN1CCOC[C@H]1C [Compound 41, 1-(4-(4-fluoro-2-methoxybenzyl)-8,8-dimethyl-7,8-dihydro-6H-pyrrolo[2,3-e][1,2,4]triazolo[1,5-a]pyridin-6-yl)-2-((2R,5R)-5-methyl-2-(((R)-3-methylmorpholino)methyl)piperazin-1-yl)ethan-1-one] | 78 nM | 14 nM
C[C@@H]1CN(CC(=O)N2CC(C)(C)c3c2cc(Cc2ccc(F)cc2O)c2ncnn32)[C@@H](CN2CCOC[C@H]2C)CN1 [Compound 42, 1-(4-(4-fluoro-2-hydroxybenzyl)-8,8-dimethyl-7,8-dihydro-6H-pyrrolo[2,3-e][1,2,4]triazolo[1,5-a]pyridin-6-yl)-2-((2R,5R)-5-methyl-2-(((R)-3-methylmorpholino)methyl)piperazin-1-yl)ethan-1-one] | 100 nM | 13 nM
C[C@@H]1CN(CC(=O)N2CC(C)(C)c3c2cc(Cc2ccc(Cl)cc2)c2ncnn32)[C@@H](CN2CCOC[C@H]2C)CN1 [Compound 44, 1-(4-(4-chlorobenzyl)-8,8-dimethyl-7,8-dihydro-6H-pyrrolo[2,3-e][1,2,4]triazolo[1,5-a]pyridin-6-yl)-2-((2R,5R)-5-methyl-2-(((R)-3-methylmorpholino)methyl)piperazin-1-yl)ethan-1-one] | 75 nM | 9 nM
CC(c1ccc(F)cc1)c1cc2c(n3ncnc13)C(C)(C)CN2C(=O)CN1C[C@@H](C)NC[C@@H]1CN1CCOC[C@H]1C (stereo partly drawn) [Compound 45, 1-(4-(1-(4-fluorophenyl)ethyl)-8,8-dimethyl-7,8-dihydro-6H-pyrrolo[2,3-e][1,2,4]triazolo[1,5-a]pyridin-6-yl)-2-((2R,5R)-5-methyl-2-(((R)-3-methylmorpholino)methyl)piperazin-1-yl)ethan-1-one] | 180 nM | 40 nM
C[C@@H]1CN(CC(=O)N2CC(C)(C)c3c2cc(Sc2ccc(F)cc2)c2ncnn32)[C@@H](CN2CCOC[C@H]2C)CN1 [Compound 49, 1-(4-((4-fluorophenyl)thio)-8,8-dimethyl-7,8-dihydro-6H-pyrrolo[2,3-e][1,2,4]triazolo[1,5-a]pyridin-6-yl)-2-((2R,5R)-5-methyl-2-(((R)-3-methylmorpholino)methyl)piperazin-1-yl)ethan-1-one] | 30 nM | 5 nM
C[C@@H]1CN(CC(=O)N2CC(C)(C)c3c2cc(C(F)(F)CC2CC2)c2ncnn32)[C@@H](CN2CCOC[C@H]2C)CN1 [Compound 53, 1-(4-(2-cyclopropyl-1,1-difluoroethyl)-8,8-dimethyl-7,8-dihydro-6H-pyrrolo[2,3-e][1,2,4]triazolo[1,5-a]pyridin-6-yl)-2-((2R,5R)-5-methyl-2-(((R)-3-methylmorpholino)methyl)piperazin-1-yl)ethan-1-one] | 130 nM | 60 nM
C[C@@H]1CN(CC(=O)N2CC3(CC3)c3c2cc(Cc2ccc(F)cc2)c2ncnn32)[C@@H](CN2CCOC[C@H]2C)CN1 [Compound 56, 1-(4′-(4-fluorobenzyl)spiro[cyclopropane-1,8′-pyrrolo[2,3-e][1,2,4]triazolo [1,5-a]pyridin]-6′(7′H)-yl)-2-((2R,5R)-5-methyl-2-(((R)-3-methylmorpholino)methyl)piperazin-1-yl)ethan-1-one] | 35 nM | 9 nM
